This is an account of results in ChEMBL document CHEMBL1154855 (Eur J Med Chem, 2010).

This experiment relates to Vaccinia virus. As to the kind of experiment: Antiviral activity against Vaccinia virus infected in HEL cells assessed as protection from virus-induced cytopathogenicity after 2 to 3 days by MTT assay. Conditions: Orthopoxvirus vaccinia. In kind it is functional, organism-based.

With `COc1cc(/C=C/C(=O)CC(=O)/C=C/c2ccc(OC(=O)CCC(NC(=O)c3ccc(NCc4cnc5nc(N)[nH]c(=O)c5n4)cc3)C(=O)O)c(OC)c2)ccc1OC(=O)CCC(NC(=O)c1ccc(NCc2cnc3nc(N)[nH]c(=O)c3n2)cc1)C(=O)O` (stereo not drawn), the EC50 was more than 0.082 µM.
The value for `CCCCCCCCCC(=O)Oc1ccc(/C=C/C(=O)CC(=O)/C=C/c2ccc(OC(=O)CCCCCCCCC)c(OC)c2)cc1OC` was more than 0.147 µM.
In the case of `COc1cc(/C=C/C(=O)CC(=O)/C=C/c2ccc(OC(=O)[C@H](Cc3ccccc3)NC(=O)[C@@H](N)Cc3c[nH]c4ccccc34)c(OC)c2)ccc1OC(=O)[C@H](Cc1ccccc1)NC(=O)[C@@H](N)Cc1c[nH]c2ccccc12`, the EC50 was more than 0.038 µM.
Take `COc1cc(/C=C/C(=O)CC(=O)/C=C/c2ccc(OCCOC(=O)CCC(NC(=O)c3ccc(NCc4cnc5nc(N)[nH]c(=O)c5n4)cc3)C(=O)O)c(OC)c2)ccc1O` (stereo not drawn): the EC50 was more than 0.119 µM.
`NC(=O)c1ncn([C@@H]2O[C@H](CO)[C@@H](O)[C@H]2O)n1` [RIBAVIRIN]: the half-maximal effective concentration (EC50) came out at 85 µM.
Take `Nc1nc2c(ncn2COC(CO)CO)c(=O)[nH]1` [GANCICLOVIR]: the EC50 is more than 100 µM.
Regarding `COc1cc(/C=C/C(=O)C(CCOC(=O)CCC(NC(=O)c2ccc(NCc3cnc4nc(N)[nH]c(=O)c4n3)cc2)C(=O)O)C(=O)/C=C/c2ccc(O)c(OC)c2)ccc1O` (stereo not drawn), the concentration for a half-maximal effect (EC50) is more than 0.011 µM.
The value for `O=c1[nH]c(=O)n([C@H]2C[C@H](O)[C@@H](CO)O2)cc1/C=C/Br` [BRIVUDINE] was 2 µM.
